Data from patent US11730717B1, “Melanin-inspired antimicrobial” (The Board of Regents for the Oklahoma Agricultural and …, priority 2020, dated 2023).

How the values were obtained:
Format in all cases: cell-based
Serratia marcescens db11 = experiment: Disc agar diffusion assay; details: Group 1: Gram-negative organisms
Method: (§1) As a further test of an embodiment, the antibacterial properties of EIPE-1 were tested across a large panel of organisms. EIPE-1 was dissolved in DMSO, impregnated onto sterile filter paper disks, and DMSO served as the untreated control according to the following procedure: • 1. Prepare a 2.5 μg/μL stock solution of EIPE-1 by micro pipetting 200 μL of DMSO into 2.0 mL Eppendorf Tube containing 0.5 mg of EIPE-1. Dissolve with vortex agitation and store at 4° C. • 2. Use forceps to pick up sterile 6.0 mm blank paper disks. Make sure to touch only one side of disc as lightly as possible. While holding blank paper disc, deliver 10.0 μL of the 2.5 μg/μL EIPE-1 solution by touching the micropipette tip to the center of the blank paper disc. Lean the impregnated disc up against the side of a small sterile glass petri dish. Follow same procedure for DMSO control. Allow disks several hours to dry under flowing sterile air. • 3. Inoculate starter cultures using cells from working culture cultivated on Mueller-Hinton Agar (MHA; Difco Laboratories). Starters consist of ˜20 mL of Mueller-Hinton Broth (MHB; Difco Laboratories) in 125-mL culture flasks. Incubate starter cultures in an Excella E24 Benchtop Incubator Shaker (New Brunswick Scientific Co., Inc., Edison, N.J., USA) at 37° C. and 180 rpm for 15-18 hours. • 4. Pour at least 5.0 mL of NMB into 18-mL Kimax tubes. Use a Pasteur pipette to deliver enough of the starter culture cell suspension to reach an optical density (OD620) of 0.025 (Spectronic™ 20 optical spectrophotometer; Thermo Electron Corp., Madison, Wis., USA). Ensure that both transmittance and absorbance are set to 0.0 using a blank NMB sample. Incubate in rotary shaking incubator at 37° C. and 180 rpm until optical density reaches 0.1. • 5. Deliver 100 μL of test culture to the middle of a small 100 mm×15 mm Petri dish containing ˜⅛ in thickness of MHA. • 6. Saturate a sterile cotton swab with MHB by dipping the cotton swab into KIMAX® tube with MHB and then touch the swab to the north, south, east, and west side of the KIMAX® tube to remove excess broth. • 7. Streak the inoculum as follows: • a. Start in the center and make four straight lines to the 12, 3, 6, and 9 o'clock position on the petri dish. • b. Start at the 12 o'clock position and streak side to side all the way down the plate to the 6 o'clock position. […] Rotate the petri dish 90° and complete the same side to side streak all the way down the petri dish. • d. Complete step c. twice more. • e. Rotate petri dish 45° and complete the side-to-side streak. • f. Rotate petri dish 90° and complete the side-to-side streak. • 8. Use sterile forceps to transfer the DMSO control paper disc onto the agar surface and pat the paper disc down to ensure flush contact. Use the same technique to deliver EIPE-1 paper disc. • 9. Place petri dish at 4° C. for 1.0 hour to allow EIPE-1 diffusion in the absence of growth. • 10. Incubate petri dish at 37° C. for 18 hours. • 11. Observe for zones of growth inhibition surrounding disks. Measure diameter with electronic caliper and subtract 6.0-mm disc diameter. Results • a) Each organism was initially tested once to serve as a screen.

[1] = system: Staphylococcus aureus SFL 64; experiment: Disc agar diffusion assay
Method: as §1

[2] = system: Serratia marcescens ATCC 13880; experiment: Disc agar diffusion assay; details: Group 1: Gram-negative organisms
Method: as §1

Serratia marcescens 8100 = experiment: Disc agar diffusion assay; details: Group 1: Gram-negative organisms
Method: as §1

Escherichia coli K12413 = experiment: Disc agar diffusion assay; details: Group 1: Gram-negative organisms
Method: as §1

[3] = system: Serratia fonticola ATCC 9844; experiment: Disc agar diffusion assay; details: Group 1: Gram-negative organisms
Method: as §1

Bacillus cereus = experiment: Disc agar diffusion assay
Method: as §1

Micrococcus luteus = experiment: Disc agar diffusion assay
Method: as §1

[4] = system: Serratia plymuthica ATCC 183; experiment: Disc agar diffusion assay; details: Group 1: Gram-negative organisms
Method: as §1

[5] = system: Serratia marcescens CO1-A; experiment: Disc agar diffusion assay; details: Group 1: Gram-negative organisms
Method: as §1

[6] = system: Serratia odorifera ATCC 53077; experiment: Disc agar diffusion assay; details: Group 1: Gram-negative organisms
Method: as §1

Lactococcus lactis = experiment: Disc agar diffusion assay
Method: as §1

Deinoccus radiophilus = experiment: Disc agar diffusion assay; details: Group 2: Gram-positive organisms
Method: as §1

[7] = system: Pasteurella moltocida P-1581; experiment: Disc agar diffusion assay; details: Group 1: Gram-negative organisms
Method: as §1

[8] = system: Serratia entomophila ATCC 43705; experiment: Disc agar diffusion assay; details: Group 1: Gram-negative organisms
Method: as §1

[9] = system: Pseudomonas aeruginosa ATCC 27853; experiment: Disc agar diffusion assay; details: Group 1: Gram-negative organisms
Method: as §1

[10] = system: Staphylococcus aureus T-5706; experiment: Disc agar diffusion assay
Method: as §1

P. moltocida P-1581 = experiment: MIC and MBC values (Table 2); details: Pasteurella, P1581
[11] = Group 3: Gram-positive organisms
[12] = Group 2: Gram-positive organisms

Structure (SMILES): COC(=O)c1cc2c(C#Cc3ccc(OCCC[N+](C)(C)C)cc3)c(OC)c(OC)c(C#Cc3ccc(OCCC[N+](C)(C)C)cc3)c2n1C [EIPE-1, 3,3′-((((5,6-dimethoxy-2-(methoxycarbonyl)-1-methyl-1H-indole-4,7-diyl)bis(ethyne-2,1-diyl))bis(4,1-phenylene))bis(oxy))bis(N,N,N-trimethylpropan-1-aminium) iodide]
- susceptibility group in disc diffusion screen (Serratia marcescens db11): resistant
- susceptibility group in disc diffusion screen [1, 11]: susceptible
- zone of inhibition at 25 µg/disc ([1]; Staphylococcus aureus, SFL64, S. aureus SFL 64, 25 μg per disk, zone minus disk diameter (6.0mm), read-out: Inhibition Zone Diameter (mm) ± SD): 2.5 ± 1.5 mm
- zone of inhibition at 250 µg/disc ([1]; Staphylococcus aureus, SFL64, S. aureus SFL 64, 250 μg per disk, zone minus disk diameter (6.0mm), read-out: Inhibition Zone Diameter (mm) ± SD): 2.5 ± 0.2 mm
- susceptibility group in disc diffusion screen [2]: resistant
- susceptibility group in disc diffusion screen (Serratia marcescens 8100): resistant
- susceptibility group in disc diffusion screen (Escherichia coli K12413): resistant
- susceptibility group in disc diffusion screen [3]: resistant
- zone of inhibition at 25 µg/disc (Bacillus cereus; Bacillus cereus, B. cereus, 25 μg per disk, zone minus disk diameter (6.0mm), read-out: Inhibition Zone Diameter (mm) ± SD): 0 mm
- susceptibility group in disc diffusion screen (Bacillus cereus; [12]): resistant
- susceptibility group in disc diffusion screen (Micrococcus luteus; [12]): resistant
- zone of inhibition at 25 µg/disc (Micrococcus luteus; Micrococcus luteus, M. luteus, 25 μg per disk, zone minus disk diameter (6.0mm), read-out: Inhibition Zone Diameter (mm) ± SD): 1 ± 1 mm
- zone of inhibition at 250 µg/disc (Micrococcus luteus; Micrococcus luteus, M. luteus, 250 μg per disk, zone minus disk diameter (6.0mm), read-out: Inhibition Zone Diameter (mm) ± SD): 2.2 ± 1.9 mm
- susceptibility group in disc diffusion screen [4]: resistant
- susceptibility group in disc diffusion screen [5]: resistant
- susceptibility group in disc diffusion screen [6]: resistant
- susceptibility group in disc diffusion screen (Lactococcus lactis; [12]): resistant
- zone of inhibition at 25 µg/disc (Lactococcus lactis; Lactococcus lactis, L. lactis, 25 μg per disk, zone minus disk diameter (6.0mm), read-out: Inhibition Zone Diameter (mm) ± SD): 0.4 ± 0.6 mm
- susceptibility group in disc diffusion screen (Deinoccus radiophilus): resistant
- susceptibility group in disc diffusion screen [7]: resistant
- susceptibility group in disc diffusion screen [8]: resistant
- susceptibility group in disc diffusion screen [9]: resistant
- susceptibility group in disc diffusion screen [10, 11]: susceptible
- zone of inhibition at 25 µg/disc ([10]; Staphylococcus aureus, T5706, S. aureus T-5706, 25 μg per disk, zone minus disk diameter (6.0mm), read-out: Inhibition Zone Diameter (mm) ± SD): 2.1 ± 0.3 mm
- zone of inhibition at 250 µg/disc ([10]; Staphylococcus aureus, T5706, S. aureus T-5706, 250 μg per disk, zone minus disk diameter (6.0mm), read-out: Inhibition Zone Diameter (mm) ± SD): 2.2 ± 0.2 mm
- MBC (P. moltocida P-1581): 64 µg/mL
- MIC (P. moltocida P-1581): 64 µg/mL
